Values joined by “and” are separate entries in the source; they are usually repeats but may differ in a detail not shown here. Equal entries are not always repeated. Where two headings read alike, the source gives them in different places.
Key:
[1] = system: normal cells (LLC-PK1); test: Cytotoxicity test on normal cells; assay type: cell-based; conditions: 3 days
Procedure: To determine the cytotoxicity of decursin on normal cells, they were sub-cultured in a medium-199 containing, 3% fetal bovine serum (FBS), penicillin (100 U/ml) and streptomycin (100 μg/ml) every 3 to 4 day. Then cells were treated with trypsin to prepare a cell suspension. 1 ml of the cell suspension was seeded on 24-well plate at a concentration of 2×10^5 in cells/ml an d attached to the medium for one day. After the supernatant was removed, 1 ml of decursin was added to the cell culture medium at appropriate concentrations and incubated for 3 days to count the cell numbers.

[2] = system: SD rats; test: BUN and creatinine in blood as markers of nephrotoxicity, cisplatin-treated rats; assay type: in vivo, rat
Procedure: The detailed test methods were summarized hereinafter. BUN (blood urea nitrogen) and creatinine as a marker of nephrotoxicity in the blood, sGPT as a marker of hepatotoxicity, occult blood in the urine, bilirubin, urobilinogen, ketone, protein, nitrite, glucose, pH and specific gravity were determined as follows. […] BUN value was measured using the BUN measurement kit (Youngdong Pharm. Co. Ltd., Korea) in the following procedure. 0.1 ml of urease was added to 20 ml of buffer solution to obtain enzymatic buffer solution. […] The two test tubes were incubated at 37° C. for 15 minutes. Then 2 ml of color-forming solution was added into each test tube and incubated again at 37° C. for 5 minutes. The absorbance was measured at 570 nm to determine the amount of BUN. (2) Measurement of Creatinine Creatinine value was measured using the creatinine measurement kit (Youngdong, Pharm. Co. Ltd., Korea) in the following procedure. 4 ml of tungsten solution was added in 0.5 ml of serum sample to be tested, and stirred vigorously and then left for 10 minutes. […]. Every 3 ml of the supernatant, reference solution of creatinine and distilled water (for blank test) was put to the separate test tubes, followed by the addition of picrate solution (1 ml each). Then 0.5 ml of 1.4N NaOH was added in each tube and stirred to measure the absorbance at 515 nm exactly after the correct lapse of 15 minutes. A total of 10 male SD rats (body weight: 200 g) were used for this experiment. […] The animals were sacrificed and again weighed four days after treatment. […] Blood samples were also taken and left to sit for 30 minutes to isolate the sera, which was used to determine BUN, creatinine and sGPT values as markers of […].

[3] = assay type: in vivo, rat; conditions: individual rats 1-4, start 200 g, four days after treatment
Procedure: A total of 10 male SD rats (body weight: 200 g) were used for this experiment. […] The animals were sacrificed and again weighed four days after treatment. […] Blood samples were also taken and left to sit for 30 minutes to isolate the sera, which was used to determine BUN, creatinine and sGPT values as markers of […].

[4] = system: U-937 cells; test: Growth inhibition test (trypan blue exclusion); assay type: cell-based, human
Procedure: U-937 cells, optioned from Korea Cell Line Bank, was cultured in RPMI 1640 medium (Sigma Co., R-6504) supplemented with 10% fetal bovine serum (FBS). The medium was exchanged every 5 day by 70%. U-937 cells were inoculated into a cell culture dish at concentration of 2×10^5 cells/ml. Then decursin added into the dish at concentration of 10^−8˜10^−6M, then the cells were cultured for 4 days. Trypan blue exclusion test was performed to determine the number of live cells using a hemacytometer, and the percentage of cancer-cell growth inhibition was calculated. Then, the differentiation was induced by treating with 10^−2M diluted ethanol solution containing various amount of decursin in the medium.

[5] = system: cell lines of uterine cancer, leukemia, hepatoma or large intestine cancer; conditions: cited from earlier work
[6] = system: U-937 cells; test: Phagocytosis test; assay type: cell-based, human; conditions: 1 × 10^−7M, incubated 4 days
Procedure: U-937 cells were plated on a cell culture dish at a concentration of 2×10^5 cells/ml in a medium containing 10^−7M decursin and incubated in a 5% CO2 incubator at 37° C.
In the phagocytosis test, 10^6 cells were well stirred and pelleted by centrifugation at 2000 rpm for 5 minutes. 1 ml of 0.2% serum free medium solution in polystyrene particle were added to the pellets, swayed and incubated at 37° C. for 4 hours. After being washed with phosphate buffered saline (PBS) three times, cell pellets were harvested and then about 200 μl of DPBS was added. The solution was lightly swayed and checked under a microscope to observe a minimum number of 200 cells. The number of cells containing the particles was calculated by percentage.
The results of phagocytosis test designed to assess the functional change according to differentiation of U-937 cells was shown in the following Table 8.

[7] = system: U-937 cells; test: Esterase activity test: α-naphthyl acetate esterase; assay type: cell-based, human; conditions: percentage of cells showing activity
Procedure: To determine α-naphthyl acetate esterase activity in the esterase activity test, the cultured solution of U-937 cells was pelleted by centrifugation at 2000 rpm for 5 minutes, followed by the addition of 100 μl PBS to prepare a cell-concentrated solution. A drop of the cell solution was put on a slide glass and dried for more than 1 hour. Then 40 ml of deionized water was preheated at 37° C. 1 ml of […] solution was mixed with 1 ml of Fast Blue BB base solution and left for 2 minutes. The mixture, being turned to yellow color with thick brown, was added to 40 ml of the preheated deionized water. After the addition of 5 ml of TRIZMAL TM 7.6 buffer solution (Sigma Co. 870-2) and 1 ml of α-naphthyl acetate solution, the resulting solution, which was turned to green color, was poured into a petri dish. The cells on a slide glass were fixed with citrate-acetone-formaldehyde solution (CAF solution) at room temperature. The cells were soaked in the previously prepared solution and incubated at 37° C. for 30 minutes at a dark place. The cells were completely washed with deionized water for more than 2 minutes and counterstained with hematoxylin solution for 2 minutes, washed with tap water and dried in the air. After completely dried, the cells were observed under a microscope to determine the blackish cell numbers.
Thus it was considered that the cells were differentiated into macrophage.like cells by the action of decursin.

[8] = post-treated: decursin 17.4 mg/kg i.p. 1, 24, 48 h after cisplatin 5.8 mg/kg i.p.
[9] = pre-treated: decursin 17.4 mg/kg i.p. 1, 24, 48 h prior to cisplatin 5.8 mg/kg i.p.

**Q.** What does the source list for `CC(C)=CC(=O)O[C@H]1Cc2cc3ccc(=O)oc3cc2OC1(C)C` [decursin]?
**A.** Growth inhibition rate (%) ([1]; 1 × 10^−6M): 0.0 ± 0.0%; Growth inhibition rate (%) ([1]; 1 × 10^−7M): 0.0 ± 0.0%; Growth inhibition rate (%) ([1]; 1 × 10^−8M): 0.0 ± 0.0%; Growth inhibition rate (%) ([1]; 5 × 10^−7M): 0.0 ± 0.0%; Growth inhibition rate (%) ([1]; 5 × 10^−8M): 0.0 ± 0.0%; BUN [2, 8]: 55.2 ± 2.1 mg/dL; Creatinine [2, 8]: 2.08 ± 0.52 mg/dL; reduction of nephrotoxicity (creatinine) compared with the control group receiving cisplatin ([2]; post-treatment group): about 40%; BUN [2, 9]: 17.5 ± 2.8 mg/dL; Creatinine [2, 9]: 0.74 ± 0.29 mg/dL; Body weight ([3]; post-treatment group (decursin after cisplatin)): 190 g and 185 g and 180 g (2×); Body weight ([3]; pre-treatment group (decursin before cisplatin)): 184 g and 190 g and 180 g (2×); Growth inhibition rate (%) ([4]; 1 × 10^−7M, 4 days (96 hours)): 42.0 ± 6.4%; inhibition at 1 µM ([4]; Homo sapiens, U-937, 96 h, 1 × 10^−6M, 4 days (96 hours), read-out: Growth inhibition rate (%)): 52 ± 2.8%; inhibition at 0.1 µM ([4]; Homo sapiens, U-937, 96 h, 1 × 10^−7M, 4 days (96 hours), read-out: Growth inhibition rate (%)): ~33%; inhibition at 0.01 µM ([4]; Homo sapiens, U-937, 96 h, 1 × 10^−8M, 4 days (96 hours), read-out: Growth inhibition rate (%)): 31 ± 7.8%; inhibition at 0.5 µM ([4]; Homo sapiens, U-937, 96 h, 5 × 10^−7M, 4 days (96 hours), read-out: Growth inhibition rate (%)): 48 ± 7.1%; inhibition at 0.05 µM ([4]; Homo sapiens, U-937, 96 h, 5 × 10^−8M, 4 days (96 hours), read-out: Growth inhibition rate (%)): 35.5 ± 7.4%; growth inhibition rate (inhibitory effect) ([4]; after 96 hours, concentration of 10^−8˜10^−6M): 30-50%; concentration at which decursin has toxicity on cancer cell lines [5]: more than 10 ppm; Phagocytosis test: cells showing phagocytosis activity [6]: 28.6%; Phagocytosis test: cells showing phagocytosis activity ([6]; listed as Decursin): 28.6 ± 1.2%; α-Naphtylacetate esterase Activity (%) [7]: 83%; α-Naphtylacetate esterase Activity (%) ([7]; listed as Decursin): 83.3 ± 3.0%
